Values after ≈ are worked out from the molar mass of the structure shown. Like-named read-outs stand apart in the source and are kept apart here.
Assays:
Pasteurella multocida [1] = assay: Pasteurella infection in one-day-old chicks, subcutaneous administration (Table XII); assay type: in vivo; details: Administered subcutaneously, 30 mg/kg × 2, 1 and 4 hours post-challenge
Procedure: (§1) Many of the C-20 modified derivatives of this invention have also shown in vivo antibacterial activity against infections induced by gram-negative bacteria. Tables XII and XIII summarize the results of tests in which illustrative compounds were evaluated against a Pasteurella infection in one-day-old chicks. The compounds were administered parenterally or orally after challenge of the chicks with Pasteurella multocida (0.1 ml of a 10^-4 dilution of a twenty-hour tryptose broth culture of an avian P. multocida given subcutaneously). In these tests, unless indicated otherwise, all non-medicated infected chicks died within 24 hours of Pasteurella challenge. In the tests summarized in Table XII, the compounds were administered by subcutaneous injection at a dosage of 30 mg/kg, 1 and 4 hours post-challenge of the chicks with P. multocida. In the tests summarized in Table XIII the compounds were administered in medicated drinking water (at a level of 2 g/gal) available from 4 to 20 hours prior to challenge of the chicks with P. multocida and during the 3 -day test period.
^a Administered subcutaneously; 30 mg/kg × 2

Pasteurella multocida [2] = assay: Pasteurella infection in one-day-old chicks, medicated drinking water (Table XIII); assay type: in vivo; details: Administered in the available drinking water at 2 g/gal
Procedure: as §1
^a Administered in the available drinking water at a concentration of […]

Staphyloccus aureus X1.1 = assay: MIC, standard agar-dilution assay (Table IX); assay type: cell-based, Staphylococcus aureus; details: Staphylococcus aureus, read-out: MIC
[3] = test system: Staphylococcus aureus V41; assay: MIC, standard agar-dilution assay (Table IX); assay type: cell-based; details: Staphylococcus aureus V41, Penicillin-resistant strain, read-out: MIC
[4] = test system: Staphylococcus aureus X400; assay: MIC, standard agar-dilution assay (Table IX); assay type: cell-based; details: Staphylococcus aureus X400, Methicillin-resistant strain, read-out: MIC
[5] = test system: Staphylococcus aureus S13E; assay: MIC, standard agar-dilution assay (Table IX); assay type: cell-based; details: Staphylococcus aureus, S13E
[6] = test system: Staphylococcus epidermidis EPI1; assay: MIC, standard agar-dilution assay (Table IX); assay type: cell-based; details: Staphylococcus epidermidis EPI1; agar-dilution; read-out: MIC
[7] = test system: Staphylococcus epidermidis 222; assay: MIC, standard agar-dilution assay (Table IX); assay type: cell-based; details: read-out: MIC
[8] = test system: Streptococcus pyogenes C203; assay: MIC, standard agar-dilution assay (Table IX); assay type: cell-based; details: read-out: MIC
[9] = test system: Streptococcus pneumoniae Park I; assay: MIC, standard agar-dilution assay (Table IX); assay type: cell-based; details: Streptococcus pneumoniae Park I; agar-dilution; read-out: MIC
[10] = test system: Streptococcus Group D X66; assay: MIC, standard agar-dilution assay (Table IX); assay type: cell-based; details: read-out: MIC
[11] = test system: Streptococcus Group D 2041; assay: MIC, standard agar-dilution assay (Table IX); assay type: cell-based; details: GROUPD2041, read-out: MIC
[12] = test system: Haemophilus influenzae C.L.; assay: MIC, standard agar-dilution assay (Table IX); assay type: cell-based; details: Ampicillin-sensitive strain, read-out: MIC
[13] = test system: Haemophilus influenzae 76; assay: MIC, standard agar-dilution assay (Table IX); assay type: cell-based; details: Haemophilus influenzae 76, Ampicillin-resistant strain, read-out: MIC
Escherichia coli N10 = assay: MIC, standard agar-dilution assay (Table IX); assay type: cell-based; details: read-out: MIC
Escherichia coli EC14 = assay: MIC, standard agar-dilution assay (Table IX); assay type: cell-based; details: read-out: MIC
Escherichia coli TEM = assay: MIC, standard agar-dilution assay (Table IX); assay type: cell-based; details: read-out: MIC
Klebsiella X26 = assay: MIC, standard agar-dilution assay (Table IX); assay type: cell-based; details: read-out: MIC
[14] = test system: Mycoplasma gallisepticum 29C; assay: MIC, broth-dilution microtiter test (Table X); assay type: cell-based; details: Mycoplasmoides gallisepticum, read-out: MIC
Source text: (§2) The MIC's in Table X were obtained using conventional broth-dilution microtiter tests.

[15] = test system: Mycoplasma hyopneumoniae S5972; assay: MIC, broth-dilution microtiter test (Table X); assay type: cell-based; details: Mesomycoplasma hyopneumoniae, read-out: MIC
Source text: as §2

Mycoplasma hyorhinis 29E = assay: MIC, broth-dilution microtiter test (Table X); assay type: cell-based; details: read-out: MIC
Source text: as §2

Mycoplasma synoviae 40A = assay: MIC, broth-dilution microtiter test (Table X); assay type: cell-based; details: Mycoplasmopsis synoviae, read-out: MIC
Source text: as §2

[16] = test system: Pasteurella hemolytica 22C; assay: MIC, broth-dilution microtiter test (Table X); assay type: cell-based; details: read-out: MIC
Source text: as §2

[17] = test system: Pasteurella multocida 17E; assay: MIC, broth-dilution microtiter test (Table X); assay type: cell-based; details: Bovine isolate, read-out: MIC
Source text: as §2

[18] = test system: Pasteurella multocida 60A; assay: MIC, broth-dilution microtiter test (Table X); assay type: cell-based; details: Avian isolate, read-out: MIC
Source text: as §2

Staphylococcus aureus = assay: MIC, broth-dilution microtiter test (Table X); assay type: cell-based; details: read-out: MIC
Source text: as §2

Streptococcus sp. 19F = assay: MIC, broth-dilution microtiter test (Table X); assay type: cell-based; details: read-out: MIC
Source text: as §2

[19] = test system: Streptococcus pyogenes C203; assay: ED50 in mice experimentally infected with S. pyogenes C203 (Table XI); assay type: in vivo; details: Streptococcus pyogenes, doses given 1 and 4 hours postinfection, read-out: ED50
Procedure: The C-20 modified derivatives of this invention have shown in vivo antimicrobial activity against experimentally-induced infections in laboratory animals. When two doses of test compound were administered to mice experimentally infected with S. pyogenes C203, the activity observed was measured as an ED50 value [effective dose in mg/kg to protect 50% of the test animals: see Warren Wick, et al., J. Bacteriol. 81, 233-235 (1961)].
^a mg/kg × 2; doses given 1 and 4 hours postinfection

[20] = Titratable groups in 66% aqueous DMF (Tables XIV-XVI); assay type: physicochemical
Source text: ^c Run in 66% aqueous DMF
^d Run in 66% aqueous DMF

| Structure (SMILES) | Number of Deaths/Number Treated (Pasteurella multocida [1]) | Number of Deaths/Number Treated (Pasteurella multocida [2]) | MIC (Staphyloccus aureus X1.1) [µg/mL] | MIC [3] [µg/mL] | MIC [4] [µg/mL] | MIC [5] [µg/mL] | MIC [6] [µg/mL] | MIC [7] [µg/mL] | MIC [8] [µg/mL] | MIC [9] [µg/mL] | MIC [10] [µg/mL] | MIC [11] [µg/mL] | MIC [12] [µg/mL] | MIC [13] [µg/mL] | MIC (Escherichia coli N10) [µg/mL] | MIC (Escherichia coli EC14) [µg/mL] | MIC (Escherichia coli TEM) [µg/mL] | MIC (Klebsiella X26) [µg/mL] | MIC [14] [µg/mL] | MIC [15] [µg/mL] | other results |
| --- | --- | --- | --- | --- | --- | --- | --- | --- | --- | --- | --- | --- | --- | --- | --- | --- | --- | --- | --- | --- | --- |
| CCC1OC(=O)CC(O)C(C)C(OC2OC(C)C(O)C(N(C)C)C2O)C(CCN2CC3CCC(C)(C2)C3(C)C)CC(C)C(=O)C=CC(C)=CC1COC1OC(C)C(O)C(OC)C1OC (stereo not drawn) [Compound D47] | 0/10 | 6/10 | – | – | – | – | – | – | – | – | – | – | – | – | – | – | – | – | – | – | – |
| CCC1OC(=O)CC(O)C(C)C(OC2OC(C)C(O)C(N(C)C)C2O)C(CCN2CC=CCC2)CC(C)C(=O)C=CC(C)=CC1COC1OC(C)C(O)C(OC)C1OC (stereo not drawn) [Compound D22, 20-DH-DO-20-(1,2,3,6-Tetrahydropyridin-1-yl)desmycosin] | 0/10 | 5/10 | 1 (≈ 1.19 µM) | 0.5 (≈ 0.596 µM) | 1 (≈ 1.19 µM) | 0.5 (≈ 0.596 µM) | 0.5 (≈ 0.596 µM) | 0.25 (≈ 0.298 µM) | 0.25 (≈ 0.298 µM) | 1 (≈ 1.19 µM) | 8 (≈ 9.53 µM) | 8 (≈ 9.53 µM) | 16 (≈ 19.1 µM) | 8 (≈ 9.53 µM) | > 128 | > 128 | 64 (≈ 76.3 µM) | 64 (≈ 76.3 µM) | 0.78 (≈ 0.93 µM) | 1.56 (≈ 1.86 µM) | MIC (Mycoplasma hyorhinis 29E): 25 µg/mL (≈ 29.8 µM); MIC (Mycoplasma synoviae 40A): 0.78 µg/mL (≈ 0.93 µM); MIC [16]: 3.12 µg/mL (≈ 3.72 µM); MIC [17]: 12.5 µg/mL (≈ 14.9 µM); MIC [18]: 12.5 µg/mL (≈ 14.9 µM); MIC (Staphylococcus aureus): 1.56 µg/mL (≈ 1.86 µM); MIC (Streptococcus sp. 19F): 3.12 µg/mL (≈ 3.72 µM); ED50 ([19]; C203, Oral): 40 mg/kg; ED50 ([19]; C203, sc, Subcutaneous): 0.8 mg/kg |
| CCC1OC(=O)CC(O)C(C)C(OC2OC(C)C(O)C(N(C)C)C2O)C(CCN2CC3(C)CC2CC(C)(C)C3)CC(C)C(=O)C=CC(C)=CC1COC1OC(C)C(O)C(OC)C1OC (stereo not drawn) [Compound D21, 20-DH-DO-20-[1,3,3-trimethyl-6-azabicyclo[3.2.1]octan-6-yl]desmycosin] | 7/10 | 3/10 | 1 (≈ 1.1 µM) | 1 (≈ 1.1 µM) | 1 (≈ 1.1 µM) | 1 (≈ 1.1 µM) | 1 (≈ 1.1 µM) | 0.5 (≈ 0.55 µM) | 0.5 (≈ 0.55 µM) | 0.5 (≈ 0.55 µM) | 4 (≈ 4.4 µM) | 8 (≈ 8.8 µM) | 32 (≈ 35.2 µM) | 16 (≈ 17.6 µM) | 64 (≈ 70.4 µM) | 64 (≈ 70.4 µM) | 32 (≈ 35.2 µM) | 64 (≈ 70.4 µM) | 1.56 (≈ 1.72 µM) | 0.195 (≈ 0.214 µM) | MIC (Mycoplasma synoviae 40A): 0.39 µg/mL (≈ 0.429 µM); MIC [16]: 3.12 µg/mL (≈ 3.43 µM); MIC [17]: 3.12 µg/mL (≈ 3.43 µM); MIC [18]: 3.12 µg/mL (≈ 3.43 µM); MIC (Staphylococcus aureus): 0.78 µg/mL (≈ 0.858 µM); MIC (Streptococcus sp. 19F): 1.56 µg/mL (≈ 1.72 µM); ED50 ([19]; C203, Oral): 10 mg/kg; ED50 ([19]; C203, sc, Subcutaneous): 1 mg/kg; pKa ([20]; Titratable groups): 9.7; pKa ([20]; Titratable groups (first value)): 8 |
| CCC1OC(=O)CC(O)C(C)C(OC2OC(C)C(O)C(N(C)C)C2O)C(CCN2CCC3(CC2)OCCO3)CC(C)C(=O)C=CC(C)=CC1COC1OC(C)C(O)C(OC)C1OC (stereo not drawn) [Compound D28, 20-DH-DO-20-[4-(ethylenedioxy)piperidin-1-yl]desmycosin] | 0/10 | 7/10 | 2 (≈ 2.22 µM) | 2 (≈ 2.22 µM) | 4 (≈ 4.45 µM) | 2 (≈ 2.22 µM) | 2 (≈ 2.22 µM) | 1 (≈ 1.11 µM) | 0.5 (≈ 0.556 µM) | 2 (≈ 2.22 µM) | 8 (≈ 8.9 µM) | 8 (≈ 8.9 µM) | 32 (≈ 35.6 µM) | 32 (≈ 35.6 µM) | > 128 | > 128 | 64 (≈ 71.2 µM) | 64 (≈ 71.2 µM) | 0.097 (≈ 0.108 µM) | 1.56 (≈ 1.74 µM) | MIC (Mycoplasma hyorhinis 29E): 25 µg/mL (≈ 27.8 µM); MIC (Mycoplasma synoviae 40A): 0.195 µg/mL (≈ 0.217 µM); MIC [16]: 25 µg/mL (≈ 27.8 µM); MIC [17]: 6.25 µg/mL (≈ 6.95 µM); MIC [18]: 25 µg/mL (≈ 27.8 µM); MIC (Staphylococcus aureus): 3.12 µg/mL (≈ 3.47 µM); MIC (Streptococcus sp. 19F): 3.12 µg/mL (≈ 3.47 µM); ED50 ([19]; C203, Oral): 77 mg/kg; ED50 ([19]; C203, sc, Subcutaneous): 0.75 mg/kg |

Reference: patent publication US4820695A, “C-20-dihydro-deoxy-(cyclic amino)-derivatives of macrolide antibiotics” (priority 1987, dated 1989)
